Laboratory results as given in PubChem BioAssay (NCI).
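Following 48 hours of exposure in 96-well plates, responses at five concentrations were used to interpolate endpoints linearly. The concentration for 50% growth inhibition is given as GI50. TGI is the concentration that stops growth completely.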

Assays:
Assay in all cases: NCI tumour cell line growth inhibition, 48 h
[1] = test system: K-562 leukemia
[2] = test system: NCI-H460 lung
[3] = test system: DU-145 prostate
[4] = test system: RPMI-8226 leukemia
[5] = test system: HCT-116 colon
[6] = test system: A549 NSCLC
[7] = test system: KM12 colon
[8] = test system: NCI-H23 lung
[9] = test system: 786-0 renal
[10] = test system: COLO 205 colon
[11] = test system: HOP-62 NSCLC
[12] = test system: MCF7 breast
[13] = test system: MALME-3M melanoma
[14] = test system: SF-295 CNS
[15] = test system: MDA-MB-231 breast
[16] = test system: SK-MEL-28 melanoma
[17] = test system: A498 renal
[18] = test system: CAKI-1 renal
[19] = test system: HCC-2998 colon
[20] = test system: OVCAR-4 ovarian
[21] = test system: M14 melanoma
[22] = test system: SW-620 colon
[23] = test system: BT-549 breast
[24] = test system: SNB-75 CNS
[25] = test system: SN12C renal
[26] = test system: EKVX NSCLC
[27] = test system: OVCAR-5 ovarian
[28] = test system: SK-OV-3 ovarian
[29] = test system: MDA-MB-435
[30] = test system: CCRF-CEM leukemia
[31] = test system: OVCAR-3 ovarian
[32] = test system: SNB-19 CNS
[33] = test system: UACC-257 melanoma
[34] = test system: NCI-H522 lung
[35] = test system: UO-31 renal
[36] = test system: UACC-62 melanoma
[37] = test system: T-47D breast
[38] = test system: SR leukemia
[39] = test system: ACHN renal
[40] = test system: NCI-H226 lung
[41] = test system: SF-268 CNS
[42] = test system: SK-MEL-2 melanoma
[43] = test system: IGROV1 ovarian
[44] = test system: SF-539 CNS
[45] = test system: U251 CNS
[46] = test system: HL-60(TB) leukemia
[47] = test system: OVCAR-8 ovarian
[48] = test system: LOX IMVI melanoma
[49] = test system: HCT-15 colon
[50] = test system: SK-MEL-5 melanoma
[51] = test system: MOLT-4 leukemia
[52] = test system: PC-3 prostate
[53] = test system: NCI/ADR-RES ovarian
[54] = test system: TK-10 renal
[55] = test system: HT29 colon

## CS(=O)(=O)Nc1cc(-c2ccc3ncnc(Nc4ccc(OCc5ccccn5)c(Cl)c4)c3c2)cnc1Cl
[1]
  GI50: 1290 nM
  TGI: > 100000 nM
[2]
  GI50: 502 nM
  TGI: > 100000 nM
[3]
  GI50: 520 nM
  TGI: > 100000 nM
[4]
  GI50: 286 nM
  TGI: 1030 nM
[5]
  GI50: 648 nM
  TGI: > 100000 nM
[6]
  GI50: 1090 nM
  TGI: 5480 nM
[7]
  GI50: 572 nM
  TGI: 2180 nM
[8]
  GI50: 381 nM
  TGI: > 100000 nM
[9]
  GI50: 804 nM
  TGI: > 100000 nM
[10]
  GI50: 316 nM
  TGI: 1850 nM
[11]
  GI50: 646 nM
  TGI: > 100000 nM
[12]
  GI50: 185 nM
  TGI: > 100000 nM
[13]
  GI50: 85.1 nM
  TGI: 736 nM
[14]
  GI50: 526 nM
  TGI: 4750 nM
[15]
  GI50: 313 nM
  TGI: 2030 nM
[16]
  GI50: 256 nM
  TGI: 3920 nM
[17]
  GI50: 155 nM
  TGI: 641 nM
[18]
  GI50: 1090 nM
  TGI: 3660 nM
[19]
  GI50: 1130 nM
  TGI: 3310 nM
[20]
  GI50: 1490 nM
  TGI: > 100000 nM
[21]
  GI50: 486 nM
[22]
  GI50: 448 nM
  TGI: 10500 nM
[23]
  GI50: 140 nM
  TGI: 1230 nM
[24]
  GI50: 43.8 nM
  TGI: 797 nM
[25]
  GI50: 350 nM
  TGI: > 100000 nM
[26]
  GI50: 313 nM
  TGI: 3460 nM
[27]
  GI50: 325 nM
  TGI: 4580 nM
[28]
  GI50: 210 nM
  TGI: 1160 nM
[29]
  GI50: 376 nM
  TGI: 2780 nM
[30]
  GI50: 217 nM
  TGI: > 100000 nM
[31]
  GI50: 217 nM
  TGI: 1410 nM
[32]
  GI50: 449 nM
  TGI: > 100000 nM
[33]
  GI50: 378 nM
  TGI: 7100 nM
[34]
  GI50: 131 nM
  TGI: 2350 nM
[35]
  GI50: 337 nM
  TGI: 3860 nM
[36]
  GI50: 264 nM
  TGI: 1580 nM
[37]
  GI50: 25.8 nM
  TGI: 217 nM
[38]
  GI50: 374 nM
  TGI: 2770 nM
[39]
  GI50: 1020 nM
  TGI: > 100000 nM
[40]
  GI50: 549 nM
  TGI: 11000 nM
[41]
  GI50: 429 nM
  TGI: > 100000 nM
[42]
  GI50: 184 nM
  TGI: 739 nM
[43]
  GI50: 74.8 nM
  TGI: 409 nM
[44]
  GI50: 310 nM
  TGI: 2380 nM
[45]
  GI50: 316 nM
  TGI: 2310 nM
[46]
  GI50: 230 nM
  TGI: 2720 nM
[47]
  GI50: 1360 nM
  TGI: 26800 nM
[48]
  GI50: 268 nM
  TGI: 1920 nM
[49]
  GI50: 1130 nM
  TGI: > 42000 nM
[50]
  GI50: 214 nM
  TGI: 680 nM
[51]
  GI50: 223 nM
  TGI: 750 nM
[52]
  GI50: 349 nM
  TGI: > 100000 nM
[53]
  GI50: 7070 nM
  TGI: > 100000 nM
[54]
  GI50: 230 nM
  TGI: 1780 nM
[55]
  GI50: 456 nM
  TGI: 38500 nM
